Laboratory results reported in patent US20160296511A1, “LAQUINIMOD FOR REDUCING THALAMIC DAMAGE IN MULTIPLE SCLEROSIS” (Teva Pharmaceutical Industries, Ltd., priority 2012, published 2016).
Entries after “also recorded” stand apart in the source; their conditions may differ.

Legend:
subjects with RRMS [1] = experiment: ALLEGRO sub-study: 1H-MRS, NAA/Cr ratio in WM; assay type: in vivo, human; details: at 24 months; difference vs placebo not statistically significant (p=0.179), N=27
Procedure: • 1. Frequent MRI (selected countries and sites only): The cumulative number of T1-Gd enhancing lesions taken from scans obtained at months 0, 3, 6, 12, and 24, and in case the study is be extended, 30. Additional MRIs for the ancillary study are performed at months 3 and 6. • 2. Magnetization Transfer (MT) (selected countries and sites only): the change from baseline to month 12 and 24/30 months in magnetization transfer MRI. MT was assessed at months 0 (baseline), 12 and 24 (termination/early discontinuation). In case of the 6 months extended study, the last MT was performed at month 30 (termination/early discontinuation of the extended study) instead of month 24. • 3. Proton MR Spectroscopy (^1H-MRS) (selected countries and sites only): Change from baseline to 24/30 in ^1H-MRS metabolites. ^1H-MRS was assessed at months 0 (baseline), and 24 (termination/early discontinuation). In case of the 6 months extended study, the last ^1H-MRS was performed at month 30 (termination/early discontinuation of the extended study) instead of month 24. • 4. Pharmacogenetic (PGx) assessment: Blood samples for PGx parameters were collected from all subjects at screening. • 5. […] Changes in NAA/Cr from baseline to month 24 was analyzed using ANCOVA.

[2] = system: subject afflicted by tremor or spasticity; experiment: Example 3: oral laquinimod in treating tremor and spasticity; assay type: in vivo
Procedure: A composition comprising laquinimod as described herein is administered to a subject afflicted by tremor. […] A composition comprising laquinimod as described herein is administered to a subject afflicted by tremor. […] A composition comprising laquinimod as described herein is administered to a subject afflicted by spasticity. […] A composition comprising laquinimod as described herein is administered to a subject afflicted by tremor.

subjects with RRMS [3] = experiment: ALLEGRO sub-study: MT MRI, magnetization transfer ratio (MTR) of NABT, WM, GM and T2 lesions; assay type: in vivo, human; details: for Average MTR of T2 lesions, LS mean (SE) change / GM MTR, LS mean (SE) change / NABT MTR, LS mean (SE) change / WM MTR, LS mean (SE) change: 0.6 mg; for Average MTR of T2 lesions, treatment difference (95% CI) / GM MTR, treatment difference (95% CI) / NABT MTR, treatment difference (95% CI) / WM MTR, treatment difference (95% CI): laquinimod 0.6 mg vs placebo
Procedure: • 1. Frequent MRI (selected countries and sites only): The cumulative number of T1-Gd enhancing lesions taken from scans obtained at months 0, 3, 6, 12, and 24, and in case the study is be extended, 30. Additional MRIs for the ancillary study are performed at months 3 and 6. • 2. Magnetization Transfer (MT) (selected countries and sites only): the change from baseline to month 12 and 24/30 months in magnetization transfer MRI. MT was assessed at months 0 (baseline), 12 and 24 (termination/early discontinuation). In case of the 6 months extended study, the last MT was performed at month 30 (termination/early discontinuation of the extended study) instead of month 24. • 3. Proton MR Spectroscopy (^1H-MRS) (selected countries and sites only): Change from baseline to 24/30 in ^1H-MRS metabolites. ^1H-MRS was assessed at months 0 (baseline), and 24 (termination/early discontinuation). In case of the 6 months extended study, the last ^1H-MRS was performed at month 30 (termination/early discontinuation of the extended study) instead of month 24. • 4. Pharmacogenetic (PGx) assessment: Blood samples for PGx parameters were collected from all subjects at screening. • 5. Brain atrophy, as defined by the percentage of change from one scan to the subsequent scan in brain volume, in addition to the measurements done in the main study (Frequent MRI Cohort). • 6. Whole blood and serum samples (selected countries and sites only) were collected for evaluation of the immunological response to treatment with laquinimod and further investigation of the potential mechanism of action. Whole blood samples were collected at months: 0, 1, 3, 6, 12 and 24. Serum samples were collected at month: 0, 1, 6, 12 and 24 (even if the study is extended to month 30). • 7. Relationship between PGx and response to laquinimod in terms of clinical, MRI and safety parameters. Patients with valid baseline and month 12, and/or month 24 MT MRI assessments were included in the analysis. Least square (LS) mean changes from baseline MTR in NABT, WM, GM and T2-lesions at months 12 and 24, and between months 12 an 24, were evaluated using a MMRM analysis.

Q: With CCN(C(=O)c1c(O)c2c(Cl)cccc2n(C)c1=O)c1ccccc1 [Laquinimod] as the compound, how does the “WM NAA/Cr ratio” value (subjects with RRMS [1]) read?
A: tended to increase

Q: And the “Spasticity in the subject” value ([2]; subject afflicted by spasticity)?
A: effective to inhibit spasticity; also recorded: effective to reduce spasticity

Q: And the “Tremor in the subject” value ([2]; subject afflicted by tremor)?
A: effective to inhibit tremor; also recorded: effective to reduce tremor

Q: And the “Average MTR of T2 lesions, LS mean (SE) change” value (“Average MTR … (SE) change” for short) (subjects with RRMS [3]; Baseline to Month 12)?
A: 0.39 (0.25)

Q: And the “GM MTR, LS mean (SE) change” value (subjects with RRMS [3]; Baseline to Month 12)?
A: 0.30 (0.13)

Q: And the “NABT MTR, LS mean (SE) change” value (subjects with RRMS [3]; Baseline to Month 12)?
A: 0.31 (0.12)

Q: What about the “WM MTR, LS mean (SE) change” value (subjects with RRMS [3]; Baseline to Month 12) of the same compound?
A: 0.32 (0.13)

Q: And the “Average MTR of T2 lesions, treatment difference (95% CI)” value (subjects with RRMS [3]; Baseline to Month 12)?
A: 0.38 (−0.26, 1.01) p = 0.239

Q: And the “GM MTR, treatment difference (95% CI)” value (subjects with RRMS [3]; Baseline to Month 12)?
A: 0.41 (0.08, 0.74) p = 0.014

Q: And the “NABT MTR, treatment difference (95% CI)” value (subjects with RRMS [3]; Baseline to Month 12)?
A: 0.40 (0.09, 0.71) p = 0.013

Q: What about the “WM MTR, treatment difference (95% CI)” value (subjects with RRMS [3]; Baseline to Month 12) of the same compound?
A: 0.40 (0.09, 0.72) p = 0.013

Q: What about the “Average MTR … (SE) change” value (subjects with RRMS [3]; Baseline to Month 24) of the same compound?
A: 0.46 (0.29)

Q: And the “GM MTR, LS mean (SE) change” value (subjects with RRMS [3]; Baseline to Month 24)?
A: 0.14 (0.16)

Q: What about the “NABT MTR, LS mean (SE) change” value (subjects with RRMS [3]; Baseline to Month 24) of the same compound?
A: 0.23 (0.15)

Q: What about the “WM MTR, LS mean (SE) change” value (subjects with RRMS [3]; Baseline to Month 24) of the same compound?
A: 0.27 (0.16)

Q: And the “Average MTR of T2 lesions, treatment difference (95% CI)” value (subjects with RRMS [3]; Baseline to Month 24)?
A: 0.53 (−0.23, 1.28) p = 0.168

Q: And the “GM MTR, treatment difference (95% CI)” value (subjects with RRMS [3]; Baseline to Month 24)?
A: 0.47 (0.04, 0.90) p = 0.034

Q: What about the “NABT MTR, treatment difference (95% CI)” value (subjects with RRMS [3]; Baseline to Month 24) of the same compound?
A: 0.50 (0.10, 0.89) p = 0.015

Q: What about the “WM MTR, treatment difference (95% CI)” value (subjects with RRMS [3]; Baseline to Month 24) of the same compound?
A: 0.53 (0.13, 0.94) p = 0.011

Q: And the “Average MTR … (SE) change” value (subjects with RRMS [3]; Month 12 to Month 24)?
A: 0.07 (0.24)

Q: And the “GM MTR, LS mean (SE) change” value (subjects with RRMS [3]; Month 12 to Month 24)?
A: −0.16 (0.15)

Q: And the “NABT MTR, LS mean (SE) change” value (subjects with RRMS [3]; Month 12 to Month 24)?
A: −0.08 (0.14)

Q: What about the “WM MTR, LS mean (SE) change” value (subjects with RRMS [3]; Month 12 to Month 24) of the same compound?
A: −0.05 (0.13)

Q: What about the “Average MTR of T2 lesions, treatment difference (95% CI)” value (subjects with RRMS [3]; Month 12 to Month 24) of the same compound?
A: 0.15 (−0.51, 0.81) p = 0.651

Q: What about the “GM MTR, treatment difference (95% CI)” value (subjects with RRMS [3]; Month 12 to Month 24) of the same compound?
A: 0.06 (−0.37, 0.49) p = 0.787

Q: And the “NABT MTR, treatment difference (95% CI)” value (subjects with RRMS [3]; Month 12 to Month 24)?
A: 0.10 (−0.31, 0.50) p = 0.642

Q: What about the “WM MTR, treatment difference (95% CI)” value (subjects with RRMS [3]; Month 12 to Month 24) of the same compound?
A: 0.13 (−0.24, 0.51) p = 0.486
